Target: human 5-HT2C-VSV receptors (Homo sapiens, UniProt P28335, I156V/I160V/N158S)
Type: binding
Conditions: not given

human 5-HT2C-VSV receptors, sequence (P28335 33-458 I156V/N158S/I160V limits assumed): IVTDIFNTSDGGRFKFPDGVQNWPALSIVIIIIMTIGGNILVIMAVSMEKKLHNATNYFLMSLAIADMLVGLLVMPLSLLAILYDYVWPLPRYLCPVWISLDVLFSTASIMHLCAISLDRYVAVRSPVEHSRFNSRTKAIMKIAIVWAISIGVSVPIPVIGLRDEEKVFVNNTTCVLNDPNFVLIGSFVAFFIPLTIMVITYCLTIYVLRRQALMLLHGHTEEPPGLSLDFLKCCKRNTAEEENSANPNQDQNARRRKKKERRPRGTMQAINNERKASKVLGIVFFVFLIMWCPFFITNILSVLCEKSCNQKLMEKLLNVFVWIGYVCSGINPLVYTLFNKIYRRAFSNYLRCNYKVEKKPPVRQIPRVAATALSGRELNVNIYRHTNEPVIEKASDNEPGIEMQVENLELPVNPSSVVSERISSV

Structure (SMILES) | affinity to the 5HT2C receptor
Fc1ccc(Sc2ccc(F)cc2C2CCNCC2)c(F)c1 [2t, 4-[2-(2,4-Difluoro-phenylsulfanyl)-5-fluoro-phenyl]-piperidine] | good affinity
Fc1cccc(Sc2cccc(F)c2C2CCNCC2)c1 [3d11, 4-[2-(3-Fluoro-phenylsulfanyl)-6-fluoro-phenyl]-piperidine] | good affinity
Cc1ccc(Sc2cccc(F)c2C2CCNCC2)c(F)c1 [3d21, 4-[2-(2-Fluoro-4-methyl-phenylsulfanyl)-6-fluoro-phenyl]-piperidine] | good affinity
Fc1ccc(Sc2cccc(F)c2C2CCNCC2)cc1 [3d27, 4-[2-(4-Fluoro-phenylsulfanyl)-6-fluoro-phenyl]-piperidine] | good affinity
COc1ccc(Sc2cccc(F)c2C2CCNCC2)c(Cl)c1 [3d25, 4-[2-(2-Chloro-4-methoxy-phenylsulfanyl)-6-fluoro-phenyl]-piperidine] | good affinity
Cc1ccc(Sc2ccc(C)cc2C2CCNCC2)cc1 [1f, 4-[2-(4-Methyl-phenylsulfanyl)-5-methyl-phenyl]-piperidine] | good affinity
Cc1ccc(Sc2ccc(F)cc2C)c(C2CCNCC2)c1 [1h, 4-[2-(4-Fluoro-2-methyl-phenylsulfanyl)-5-methyl-phenyl]-piperidine] | good affinity
COc1ccc(Sc2c(F)cccc2C2CCNCC2)cc1 [2d, 4-[2-(4-Methoxy-phenylsulfanyl)-3-fluoro-phenyl]-piperidine] | good affinity
Fc1ccc(Sc2cccc(F)c2C2CCNCC2)c(F)c1 [3d24, 4-[2-(2,4-Difluoro-phenylsulfanyl)-6-fluoro-phenyl]-piperidine] | good affinity
Fc1ccc(Sc2ccc(F)cc2C2CCNCC2)cc1 [2j, 4-[2-(4-Fluoro-phenylsulfanyl)-5-fluoro-phenyl]-piperidine] | good affinity
Fc1ccc(Sc2cc(F)ccc2C2CCNCC2)cc1 [3f3, 4-[2-(4-Fluoro-phenylsulfanyl)-4-fluoro-phenyl]-piperidine] | good affinity
Fc1ccc(C2CCNCC2)c(Sc2ccc(Cl)cc2)c1 [1d, 4-[2-(4-Chloro-phenylsulfanyl)-4-fluoro-phenyl]-piperidine] | good affinity
Fc1cccc(Sc2cccc(Cl)c2)c1C1CCNCC1 [3d10, 4-[2-(3-Chloro-phenylsulfanyl)-6-fluoro-phenyl]-piperidine] | good affinity
Fc1ccc(Sc2ccccc2C2CCNCC2)c(F)c1 [3a4, 4-[2-(2,4-Difluoro-phenylsulfanyl)-phenyl]-piperidine] | good affinity
COc1ccc(Sc2cc(F)ccc2C2CCNCC2)cc1 [1e, 4-[2-(4-Methoxy-phenylsulfanyl)-4-fluoro-phenyl]-piperidine] | good affinity
COc1ccc(Sc2ccc(F)cc2)c(C2CCNCC2)c1 [3c2, 4-[2-(4-Fluoro-phenylsulfanyl)-5-methoxy-phenyl]-piperidine] | good affinity
COc1ccc(Sc2ccc(F)cc2C2CCNCC2)cc1 [2b, 4-[2-(4-Methoxy-phenylsulfanyl)-5-fluoro-phenyl]-piperidine] | good affinity
Fc1cccc(Sc2ccc(C(F)(F)F)cc2)c1C1CCNCC1 [3d16, 4-[2-(4-Trifluoromethyl-phenylsulfanyl)-6-fluoro-phenyl]-piperidine] | good affinity
Fc1ccc(C2CCNCC2)c(Sc2ccccc2Cl)c1 [3f2, 4-[2-(2-Chloro-phenylsulfanyl)-4-fluoro-phenyl]-piperidine] | good affinity
Cc1ccc(Sc2cccc(F)c2C2CCNCC2)cc1F [3d7, 4-[2-(3-Fluoro-4-methyl-phenylsulfanyl)-6-fluoro-phenyl]-piperidine] | good affinity

Structure (SMILES) | affinity to the 5HT2C receptor
Cc1ccc(Sc2ccc(F)cc2C2CCNCC2)c(F)c1 [2q, 4-[2-(2-Fluoro-4-methyl-phenylsulfanyl)-5-fluoro-phenyl]-piperidine] | good affinity
COc1ccc(Sc2ccc(F)cc2C2CCNCC2)c(F)c1 [2a3, 4-[2-(2-Fluoro-4-methoxy-phenylsulfanyl)-5-fluoro-phenyl]-piperidine] | good affinity
Fc1ccc(Sc2ccc(Br)cc2F)c(C2CCNCC2)c1 [2x, 4-[2-(4-Bromo-2-fluoro-phenylsulfanyl)-5-fluoro-phenyl]-piperidine] | good affinity
COc1ccc(Sc2ccc(C)cc2C2CCNCC2)cc1 [1i, 4-[2-(4-Methoxy-phenylsulfanyl)-5-methyl-phenyl]-piperidine] | good affinity
COc1ccc(Sc2cccc(F)c2C2CCNCC2)c(F)c1 [3d23, 4-[2-(2-Fluoro-4-methoxy-phenylsulfanyl)-6-fluoro-phenyl]-piperidine] | good affinity
COc1ccc(Sc2cccc(F)c2C2CCNCC2)c(C)c1 [3d4, 4-[2-(4-Methoxy-2-methyl-phenylsulfanyl)-6-fluoro-phenyl]-piperidine] | good affinity
Clc1ccc(Sc2ccccc2C2CCNCC2)cc1 [2a] | good affinity
Cc1ccc(Sc2ccc(Cl)cc2)c(C2CCNCC2)c1 [2g, 4-[2-(4-Chloro-phenylsulfanyl)-5-methyl-phenyl]-piperidine] | good affinity
Cc1ccc(Sc2cccc(F)c2C2CCNCC2)cc1 [3d18, 4-[2-(4-Methyl-phenylsulfanyl)-6-fluoro-phenyl]-piperidine] | good affinity
Fc1ccc(Sc2ccccc2C2CCNCC2)c(Cl)c1 [3a2, 4-[2-(2-Chloro-4-fluoro-phenylsulfanyl)-phenyl]-piperidine] | good affinity
Fc1ccc(Sc2ccc(Cl)cc2F)c(C2CCNCC2)c1 [2p, 4-[2-(4-Chloro-2-fluoro-phenylsulfanyl)-5-fluoro-phenyl]-piperidine] | good affinity
COc1ccc(Sc2cccc(F)c2C2CCNCC2)cc1 [3d26, 4-[2-(4-Methoxy-phenylsulfanyl)-6-fluoro-phenyl]-piperidine] | good affinity
Cc1ccc(Sc2c(F)cccc2C2CCNCC2)c(C)c1 [2u, 4-[2-(2,4-Dimethyl-phenylsulfanyl)-3-fluoro-phenyl]-piperidine] | good affinity
COc1ccc(Sc2ccccc2C2CCNCC2)cc1 [1b, 4-[2-(4-Methoxy-phenylsulfanyl)-phenyl]-piperidine] | good affinity
COc1cc(Sc2cccc(F)c2C2CCNCC2)ccc1F [3d13, 4-[2-(4-Fluoro-3-methoxy-phenylsulfanyl)-6-fluoro-phenyl]-piperidine] | good affinity
Fc1cccc(Sc2cccc(Cl)c2F)c1C1CCNCC1 [3d17, 4-[2-(3-Chloro-2-fluoro-phenylsulfanyl)-6-fluoro-phenyl]-piperidine] | good affinity
Fc1cc(Cl)ccc1Sc1cccc(F)c1C1CCNCC1 [3d15, 4-[2-(4-Chloro-2-fluoro-phenylsulfanyl)-6-fluoro-phenyl]-piperidine] | good affinity
Fc1cccc(Sc2ccc(Cl)cc2)c1C1CCNCC1 [3d19, 4-[2-(4-Chloro-phenylsulfanyl)-6-fluoro-phenyl]-piperidine] | good affinity
Fc1ccccc1Sc1cccc(F)c1C1CCNCC1 [3d12, 4-[2-(2-Fluoro-phenylsulfanyl)-6-fluoro-phenyl]-piperidine] | good affinity

Tested on: hippocampal 5-HT
Conditions: rats, microdialysis, combined with citalopram; cited from earlier work

Structure (SMILES) | increase of hippocampal 5-HT by citalopram
COc1ccc(NC(=O)c2ccc(-c3ccc(-c4nnc(C)o4)cc3C)cc2)cc1N1CCN(C)CC1 [GMC 2-29] | potentiated

From patent US7732463B2, “4-(2-phenylsulfanyl-phenyl)-piperidine derivatives as serotonin reuptake inhibitors” (H. Lundbeck A/S, priority 2003, dated 2010)
